From ChEMBL document CHEMBL5608240, “Structure-Activity Relationship of Inositol Thiophosphate Analogs as Allosteric Activators of Clostridioides difficile Toxin B” (J Med Chem, 2024) come the findings set out here.

The source made the active and inactive calls. No cut-off for these calls is given here.

The target in series [1] is T1, Toxin B (Clostridioides difficile, UniProt P18177). The series can be described thus: Binding affinity to His6 tagged Clostridioides difficile Toxin B truncated cysteine protease domain (543 to 799 residues) extracted from Escherichia coli BL21 (DE3) assessed as dissociation constant by ITC method.
T1 sequence (P18177 whole entry, the tested form may be a part): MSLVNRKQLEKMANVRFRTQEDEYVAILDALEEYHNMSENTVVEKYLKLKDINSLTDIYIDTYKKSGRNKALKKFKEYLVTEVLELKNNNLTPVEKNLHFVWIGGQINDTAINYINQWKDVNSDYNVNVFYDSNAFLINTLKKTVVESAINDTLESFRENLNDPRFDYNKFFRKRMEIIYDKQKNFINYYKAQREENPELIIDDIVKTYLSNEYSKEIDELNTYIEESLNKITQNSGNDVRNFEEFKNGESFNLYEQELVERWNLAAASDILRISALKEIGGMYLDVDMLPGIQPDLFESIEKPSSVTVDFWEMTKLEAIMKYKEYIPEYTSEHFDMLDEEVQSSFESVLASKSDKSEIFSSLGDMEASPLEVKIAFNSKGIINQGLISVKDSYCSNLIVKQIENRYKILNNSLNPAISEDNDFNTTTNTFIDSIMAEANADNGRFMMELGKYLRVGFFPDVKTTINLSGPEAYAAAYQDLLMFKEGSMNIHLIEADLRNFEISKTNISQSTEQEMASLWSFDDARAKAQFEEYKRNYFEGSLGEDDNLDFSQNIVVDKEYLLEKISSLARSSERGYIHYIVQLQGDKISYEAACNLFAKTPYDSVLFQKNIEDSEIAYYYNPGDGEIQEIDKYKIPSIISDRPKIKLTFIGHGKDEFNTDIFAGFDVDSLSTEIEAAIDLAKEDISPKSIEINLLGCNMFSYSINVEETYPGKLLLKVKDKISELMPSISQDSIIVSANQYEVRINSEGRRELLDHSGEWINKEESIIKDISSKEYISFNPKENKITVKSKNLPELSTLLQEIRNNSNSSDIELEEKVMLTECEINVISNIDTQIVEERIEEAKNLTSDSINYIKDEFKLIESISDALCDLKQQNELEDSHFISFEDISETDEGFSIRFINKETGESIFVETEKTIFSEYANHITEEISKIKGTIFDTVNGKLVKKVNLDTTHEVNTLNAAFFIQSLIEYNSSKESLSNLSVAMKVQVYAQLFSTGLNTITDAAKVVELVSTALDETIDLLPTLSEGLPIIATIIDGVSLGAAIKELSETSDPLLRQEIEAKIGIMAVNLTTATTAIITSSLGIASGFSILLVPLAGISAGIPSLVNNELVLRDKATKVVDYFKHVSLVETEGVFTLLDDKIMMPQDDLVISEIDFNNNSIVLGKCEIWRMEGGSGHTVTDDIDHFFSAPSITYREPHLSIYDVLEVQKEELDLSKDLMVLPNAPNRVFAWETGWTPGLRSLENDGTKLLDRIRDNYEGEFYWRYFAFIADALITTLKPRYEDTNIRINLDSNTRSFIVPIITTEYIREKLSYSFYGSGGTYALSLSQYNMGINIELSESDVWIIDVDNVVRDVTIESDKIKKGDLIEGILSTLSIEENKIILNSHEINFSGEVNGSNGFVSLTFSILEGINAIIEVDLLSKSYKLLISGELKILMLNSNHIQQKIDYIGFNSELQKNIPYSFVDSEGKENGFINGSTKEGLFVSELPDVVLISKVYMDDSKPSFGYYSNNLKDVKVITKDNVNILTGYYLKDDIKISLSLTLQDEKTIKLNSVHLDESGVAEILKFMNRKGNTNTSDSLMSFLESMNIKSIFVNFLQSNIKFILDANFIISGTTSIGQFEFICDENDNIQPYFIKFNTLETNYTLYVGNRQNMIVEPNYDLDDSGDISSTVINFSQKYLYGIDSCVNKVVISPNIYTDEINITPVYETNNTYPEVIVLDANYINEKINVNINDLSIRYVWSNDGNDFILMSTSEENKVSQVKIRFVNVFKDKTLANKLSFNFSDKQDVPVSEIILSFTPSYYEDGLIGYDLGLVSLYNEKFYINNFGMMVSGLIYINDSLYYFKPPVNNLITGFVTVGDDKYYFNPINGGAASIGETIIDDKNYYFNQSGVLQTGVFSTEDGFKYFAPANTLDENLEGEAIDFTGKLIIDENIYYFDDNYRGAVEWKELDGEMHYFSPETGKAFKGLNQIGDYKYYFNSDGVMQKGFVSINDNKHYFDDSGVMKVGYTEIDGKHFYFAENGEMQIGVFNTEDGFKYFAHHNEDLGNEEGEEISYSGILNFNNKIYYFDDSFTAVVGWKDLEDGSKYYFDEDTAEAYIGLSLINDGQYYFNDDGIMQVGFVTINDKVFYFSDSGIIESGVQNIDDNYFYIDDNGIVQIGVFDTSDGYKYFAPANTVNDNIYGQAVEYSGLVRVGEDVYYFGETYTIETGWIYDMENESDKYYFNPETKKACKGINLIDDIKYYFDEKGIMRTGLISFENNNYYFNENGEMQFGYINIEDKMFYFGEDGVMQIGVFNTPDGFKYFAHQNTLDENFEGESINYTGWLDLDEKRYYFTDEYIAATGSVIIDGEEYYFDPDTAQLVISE
Series [2] has as its target T1, Toxin B. The series can be described thus: Binding affinity to His6 tagged Clostridioides difficile Toxin B truncated cysteine protease domain (543 to 799 residues) extracted from Escherichia coli BL21 (DE3) assessed as dissociation constant in presence of 10 mM Ca2+ by ITC method. In general terms: In ITC the heat of successive injections is recorded.
Series [3] addresses Toxin B (Clostridioides difficile) (UniProt P18177). Description: Binding affinity to His6 tagged Clostridioides difficile Toxin B truncated cysteine protease domain (543 to 799 residues) extracted from Escherichia coli BL21 (DE3) assessed as change in number of bound protons per binding interaction at 530 uM by ITC analysis. Conditions: filed as positive allosteric modulator.

The target is the same in series [4]. Description: Allosteric activation of Clostridioides difficile Toxin B assessed as induction of autoproteolysis by measuring increase in TcdB cleavage at 50 uM measured after 3 hrs by silver staining based SDS-PAGE analysis relative to control. Conditions: filed as positive allosteric modulator.
Series [5] shares this target. Description: Allosteric activation of Clostridioides difficile Toxin B assessed as induction of autoproteolysis by measuring increase in TcdB cleavage at 50 uM incubated for 3 hrs in presence of 10 mM CaCl2 by silver staining based SDS-PAGE analysis relative to control.
For series [6] the target is unchanged. The series can be described thus: Allosteric activation of Clostridioides difficile Toxin B assessed as induction of autoproteolysis by measuring increase in TcdB cleavage at 50 uM incubated for 3 hrs in presence of 10 mM MgCl2 by silver staining based SDS-PAGE analysis.
The target is the same in series [7]. Description: Allosteric activation of Clostridioides difficile Toxin B assessed as induction of autoproteolysis by measuring increase in TcdB cleavage at 50 uM incubated for 3 hrs in presence of 3 mM CaCl2 by silver staining based SDS-PAGE analysis.
For series [8] the target is unchanged. The series can be described thus: Allosteric activation of Clostridioides difficile Toxin B assessed as induction of autoproteolysis by measuring increase in TcdB cleavage at 50 uM incubated for 3 hrs in presence of 1.25 mM MgCl2 by silver staining based SDS-PAGE analysis.
Series [9] has the same target. Description: Allosteric activation of Clostridioides difficile Toxin B assessed as induction of autoproteolysis by measuring increase in TcdB cleavage at 50 uM incubated for 3 hrs in presence of 100 uM ZnCl2 by silver staining based SDS-PAGE analysis.
The nature of series [10]: Solubility of compound assessed as precipitate formation at 250 uM at pH 2 to 8 incubated for 30 mins in presence of 3 to 10 mM CaCl2 by turbidimetric assay. Type of series: physicochemical. As to conditions: buffer, pH 2, 0.5 h.
The nature of series [11]: Solubility of compound assessed as precipitate formation at 250 uM at pH 2 to 8 incubated for 30 mins in presence of 1.25 to 10 mM MgCl2 by turbidimetric assay. Format: physicochemical. Conditions: buffer, pH 2, 0.5 h.
A short description of series [12]: Solubility of compound assessed as precipitate formation at 250 uM at pH 2 to 8 incubated for 30 mins in presence of 20 to 100 uM ZnCl2 by turbidimetric assay. Format: physicochemical. Conditions: buffer, pH 2, 0.5 h.
A short description of series [13]: Metal chelating activity assessed as compound-Ca2+ complex formation by measuring reduction in free cation concentration at 200 uM in presence of 200 uM CaCl2 by colorimetric assay.
Series [14] is described as follows: Metal chelating activity assessed as compound-Mg2+ complex formation by measuring reduction in free cation concentration at 200 uM in presence of 200 uM MgCl2 by colorimetric assay.
The target of series [15] is T1, Toxin B. Description: Allosteric activation of Clostridioides difficile Toxin B assessed as induction of autoproteolysis measured after 3 hrs by Western blot based extent cleavage assay. Background: A western blot detects proteins with antibodies after separation by electrophoresis.
The target in series [16] is T1, Toxin B. The series can be described thus: Allosteric activation of Clostridioides difficile Toxin B assessed as induction of autoproteolysis measured after 3 hrs in presence of CaCl2, MgCl2, ZnCl2 by Western blot based extent cleavage assay.
Series [17] addresses Toxin B (Clostridioides difficile) (UniProt P18177). The series can be described thus: Allosteric activation of Clostridioides difficile Toxin B assessed as induction of autoproteolysis by measuring maximal extent cleavage measured after 3 hrs by Western blot based extent cleavage assay relative to control. Conditions: filed as positive allosteric modulator.
For series [18] the target is unchanged. Description: Stabilization of His6 tagged Clostridioides difficile Toxin B truncated cysteine protease domain (543 to 799 residues) extracted from Escherichia coli BL21 (DE3) assessed as change in melting temperature by SYPRO Orange dye based differential scanning fluorometry analysis. A general note: Differential scanning fluorimetry follows unfolding on heating by fluorescence.

Series [19] shares this target. The series can be described thus: Stabilization of His6 tagged Clostridioides difficile apo-Toxin B truncated cysteine protease domain (543 to 799 residues) extracted from Escherichia coli BL21 (DE3) assessed as chemical shift perturbation by measuring increase in number of peaks by 1H-15N-HSQC NMR analysis (reference value: 141).
For series [20] the target is unchanged. Description: Stabilization of His6 tagged Clostridioides difficile holo-Toxin B truncated cysteine protease domain (543 to 799 residues) extracted from Escherichia coli BL21 (DE3) assessed as peaks with change in chemical shift perturbation at 350 uM by 1H-15N-HSQC NMR analysis relative to control.
Series [21] has the same target. The series can be described thus: Competitive binding affinity to His6 tagged Clostridioides difficile Toxin B truncated cysteine protease domain (543 to 799 residues) extracted from Escherichia coli BL21 (DE3) assessed as peaks with change in chemical shift perturbation by measuring residual activity at 350 uM in presence of (1R,2r,3S,4R,5s,6S)-cyclohexane-1,2,3,4,5,6-hexayl hexakis (dihydrogen phosphate) by 1H-15N-HSQC NMR analysis relative to control. Conditions: filed as positive allosteric modulator.

Series [22] has the same target. Description: Competitive binding affinity to His6 tagged Clostridioides difficile […]-Toxin B truncated cysteine protease domain (543 to 799 residues) extracted from Escherichia coli BL21 (DE3) assessed as peaks with change in chemical shift perturbation at 350 uM by 31P-NMR analysis.
The nature of series [23]: Metal chelating activity assessed as compound-Ca2+ complex formation by measuring precipitation at 250 uM at pH 2 to 8 incubated for 30 mins in presence of 3 to 10 mM CaCl2 by turbidimetric assay.
A short description of series [24]: Metal chelating activity assessed as compound-Mg2+ complex formation by measuring precipitation at 250 uM at pH 2 to 8 incubated for 30 mins in presence of 1.25 to 10 mM MgCl2 by turbidimetric assay.
In series [25] the target is Toxin B (Clostridioides difficile) (UniProt P18177). The series can be described thus: Competitive binding affinity to His6 tagged Clostridioides difficile Toxin B truncated cysteine protease domain (543 to 799 residues) extracted from Escherichia coli BL21 (DE3) assessed as peaks with change in chemical shift perturbation by measuring residual activity at 350 uM in presence of 1,3,5-(Tri-O-thiophosphate)-myo-inositol-2,4,6-tri-O-sulfate by 1H-15N-HSQC NMR analysis relative to control. As to conditions: filed as positive allosteric modulator.
Chain of Toxin B (Clostridioides difficile) (P18177 whole entry, the tested form may be a part): as above

Series [26] has the same target. Description: Allosteric activation of Clostridioides difficile Toxin B assessed as induction of autoproteolysis by measuring increase in TcdB cleavage measured after 3 hrs by silver staining based SDS-PAGE analysis. As to conditions: filed as positive allosteric modulator.
Setting [27] is: filed as positive allosteric modulator.

The Kd is the concentration at which binding is half-saturated. Regarding `O=S(=O)(O)O[C@H]1[C@H](OP(O)(O)=S)[C@@H](OS(=O)(=O)O)[C@H](OP(O)(O)=S)[C@@H](OS(=O)(=O)O)[C@H]1OP(O)(O)=S`, the Kd on Toxin B [1] turned out to be 2.26 µM; at Toxin B [2], 5.37 µM. Besides, in series [3], the Activity is -0.01.

Broadly, the ΔTm is the shift of the melting midpoint relative to a reference. Take `O=S(=O)(O)O[C@H]1[C@H](OP(O)(O)=S)[C@H](OS(=O)(=O)O)[C@H](OP(O)(O)=S)[C@@H](OS(=O)(=O)O)[C@@H]1OP(O)(O)=S`: the result in series [4], in series [13], in series [14] and in [22] (setting [27]) was Active. The Activity in [5] (setting [27]) amounted to 51%; in [6] (setting [27]) it was 42%; in series [17], 117%; in [19], 208; in [20] it was 49%; in [21], 7%. For the same molecule, in series [3], the Activity was -0.03. Moreover, the result in series [7], in series [8] and in [9] was inactive. Further, the solubility entry in series [10], in series [11] and in series [12] was “Soluble” each time. In addition, the Kd at Toxin B [1] was 0.662 µM; at Toxin B [2], 2.66 µM. Also, the results for the EC50 at Toxin B [15] and at Toxin B [16] were 3.56 µM and 113 µM, respectively. The ΔTm in series [18] amounted to 5.1 °C.

Consider `O=S(=O)(O)O[C@@H]1[C@@H](OP(O)(O)=S)[C@H](OS(=O)(=O)O)[C@H](OS(=O)(=O)O)[C@H](OS(=O)(=O)O)[C@H]1OP(O)(O)=S`, for which the result in [7], in [8] and in series [9] was inactive. Moreover, the solubility result in series [10], in series [11] and in series [12] was “Soluble” in each case. In addition, the outcome in series [13] and in [14] was Active. Further, the Kd on Toxin B [1] stood at 2.2 µM; on Toxin B [2], 4.69 µM. For the same molecule, the values for the EC50 on Toxin B [15] and at Toxin B [16] were 27.1 µM and 557 µM, respectively. Further, in series [18], the ΔTm worked out at 5.3 °C. The Activity in series [3] was 0.11.

With `O=P(O)(O)O[C@H]1[C@H](OP(=O)(O)O)[C@@H](OP(=O)(O)O)[C@H](OP(=O)(O)O)[C@@H](OP(=O)(O)O)[C@H]1OP(=O)(O)O` [PHYTIC ACID], the Activity is 6% in series [5]; 23% in series [6]; 98% in series [17]; 193 in series [19]; 47% in [25]; -1.28 in [3]. The outcome in [7], in [8], in [9] and in series [22] was inactive. In addition, the outcome in series [23] and in series [24] was Active. Also, at Toxin B [1], the Kd is 1.36 µM. In addition, the EC50 was found to be 8.39 µM on Toxin B [15] and 536 µM on Toxin B [16]. For the same molecule, in series [18], the ΔTm worked out at 3.3 °C.

With `OP(O)(=S)O[C@H]1[C@H](OP(O)(O)=S)[C@@H](OP(O)(O)=S)[C@H](OP(O)(O)=S)[C@@H](OP(O)(O)=S)[C@H]1OP(O)(O)=S`, the result in [7], in series [8] and in series [9] was inactive. In addition, the solubility result in series [10], in series [11] and in series [12] was “Soluble” throughout. The result in series [13] and in series [14] was Active. For the same molecule, on Toxin B [1], the Kd turned out to be 0.184 µM. Also, the EC50 was 2.31 µM on Toxin B [15] and 657 µM at Toxin B [16]. In addition, the ΔTm in series [18] came to 5.6 °C.

Regarding `O=P(O)(O)O[C@@H]1[C@@H](OP(=O)(O)O)[C@H](OP(=O)(O)O)[C@H](OCc2ccccc2)[C@H](OP(=O)(O)O)[C@H]1OP(=O)(O)O`, the result in [26] was Active.

For the molecule `O=S(=O)(O)O[C@H]1[C@@H](OS(=O)(=O)O)[C@H](OS(=O)(=O)O)[C@@H](OP(O)(O)=S)[C@H](OS(=O)(=O)O)[C@H]1OS(=O)(=O)O`, the outcome in series [4], in series [13] and in [14] was Active. The result in series [7], in series [8] and in series [9] was inactive. At Toxin B [1], the equilibrium dissociation constant (Kd) turned out to be 2.19 µM. Also, the ΔTm in series [18] amounted to 3.1 °C.

For the molecule `O=S(=O)(O)O[C@@H]1[C@@H](OS(=O)(=O)O)[C@H](OS(=O)(=O)O)[C@H](OP(O)(O)=S)[C@H](OS(=O)(=O)O)[C@H]1OS(=O)(=O)O`, the solubility result in series [10], in series [11] and in series [12] was “Soluble” each time. Further, the Kd on Toxin B [1] was found to be 7.14 µM.
